ChEMBL document CHEMBL3734700, “Design, synthesis and biological activity of 4-[(benzimidazol-1-yl)methyl]biphenyl-2-sulphonamides as dual angiotensin II and endothelin A receptor antagonists” (Medchemcomm, 2015)
The source made the active and inactive calls. No cut-off for these calls is given here.

Key:
[1] = target: T1, Type-1 angiotensin II receptor (Homo sapiens, UniProt P30556); assay: Displacement of 125I-labeled Sar1-Ile8-angiotensin II from human AT1 receptor incubated for 2 hrs by gamma counting analysis
T1 sequence (P30556 whole entry): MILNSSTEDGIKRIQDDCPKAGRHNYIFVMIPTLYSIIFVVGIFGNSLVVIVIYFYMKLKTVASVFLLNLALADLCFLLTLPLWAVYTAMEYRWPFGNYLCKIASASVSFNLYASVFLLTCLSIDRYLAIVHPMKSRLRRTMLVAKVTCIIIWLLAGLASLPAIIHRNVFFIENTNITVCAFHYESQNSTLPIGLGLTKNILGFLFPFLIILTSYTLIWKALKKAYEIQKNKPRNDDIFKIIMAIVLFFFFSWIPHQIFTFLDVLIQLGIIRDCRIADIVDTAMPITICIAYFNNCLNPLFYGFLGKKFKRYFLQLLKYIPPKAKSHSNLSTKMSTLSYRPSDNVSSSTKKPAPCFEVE

[2] = target: T2, Endothelin-1 receptor (Homo sapiens, UniProt P25101); assay: Displacement of 125I-labeled endothelin 1 from human ETA receptor expressed in CHO-K1 cells incubated for 4 hrs by gamma counting analysis; type: cell-based
T2 sequence (P25101 whole entry): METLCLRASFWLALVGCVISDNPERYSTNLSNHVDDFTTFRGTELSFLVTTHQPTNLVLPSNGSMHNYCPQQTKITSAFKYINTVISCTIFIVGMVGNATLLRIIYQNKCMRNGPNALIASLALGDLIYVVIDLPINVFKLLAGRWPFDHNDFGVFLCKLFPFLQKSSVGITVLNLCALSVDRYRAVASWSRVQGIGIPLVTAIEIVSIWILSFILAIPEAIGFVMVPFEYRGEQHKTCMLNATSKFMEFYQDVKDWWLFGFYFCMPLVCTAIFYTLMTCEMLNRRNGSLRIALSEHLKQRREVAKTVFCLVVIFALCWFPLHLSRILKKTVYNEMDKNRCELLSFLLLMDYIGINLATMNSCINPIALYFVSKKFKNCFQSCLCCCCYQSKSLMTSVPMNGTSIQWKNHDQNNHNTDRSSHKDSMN

[3] = tested on: Rattus norvegicus; assay: Antihypertensive activity in spontaneously hypertensive rat assessed as reduction in blood pressure at 20 mg/kg, po by tail plethysmographic analysis; type: functional, organism-based

| IC50 [1] | IC50 [2] | Structure (SMILES) | Activity [3] |
| --- | --- | --- | --- |
| 16 nM | 15 nM | CCCc1nc2c(n1Cc1ccc(-c3ccccc3S(=O)(=O)Nc3onc(C)c3C)c(C#N)c1)C(=O)CCCC2 |  |
| 28 nM | 10 nM | CCCc1nc2c(C)cc(C(=O)NCc3ccccc3)cc2n1Cc1ccc(-c2ccccc2S(=O)(=O)Nc2onc(C)c2C)cc1 | Active |
| 385 nM | 140000 nM | CCCc1nc2c(C)cc(C(=O)NC(C)(C)C)cc2n1Cc1ccc(-c2ccccc2S(=O)(=O)Nc2onc(C)c2C)cc1 |  |
| 92 nM | 55000 nM | CCCc1nc2c(C)cc(C(=O)NCCc3ccc(OC)c(OC)c3)cc2n1Cc1ccc(-c2ccccc2S(=O)(=O)Nc2onc(C)c2C)cc1 |  |
| 217 nM | 310 nM | CCCc1nc2c(C)cc(C(=O)NCc3ccccc3OC)cc2n1Cc1ccc(-c2ccccc2S(=O)(=O)Nc2onc(C)c2C)cc1 |  |
| 47 nM | 1800 nM | CCCc1nc2c(C)cc(C(=O)NCCN3CCN(C)CC3)cc2n1Cc1ccc(-c2ccccc2S(=O)(=O)Nc2onc(C)c2C)cc1 |  |
| 56 nM | 28000 nM | CCCc1nc2c(C)cc(C(=O)NCc3ccc(OC)c(OC)c3)cc2n1Cc1ccc(-c2ccccc2S(=O)(=O)Nc2onc(C)c2C)cc1 |  |
| 76 nM | 200000 nM | CCCc1nc2c(C)cc(C(=O)NCCc3ccc(OC)cc3)cc2n1Cc1ccc(-c2ccccc2S(=O)(=O)Nc2onc(C)c2C)cc1 |  |
| 160 nM | 262 nM | CCCc1nc2c(C)cc(C(=O)NCCc3ccccc3F)cc2n1Cc1ccc(-c2ccccc2S(=O)(=O)Nc2onc(C)c2C)cc1 |  |
| 81 nM | 388 nM | CCCc1nc2c(C)cc(C(=O)NCc3ccc(OC)cc3)cc2n1Cc1ccc(-c2ccccc2S(=O)(=O)Nc2onc(C)c2C)cc1 |  |
| 419 nM | 137 nM | CCCc1nc2c(C)cc(C(=O)Nc3ccccc3OC)cc2n1Cc1ccc(-c2ccccc2S(=O)(=O)Nc2onc(C)c2C)cc1 |  |
| 31 nM | 1400 nM | CCCc1nc2c(C)cc(C(=O)NCCN3CCOCC3)cc2n1Cc1ccc(-c2ccccc2S(=O)(=O)Nc2onc(C)c2C)cc1 |  |
| 95 nM | 5500 nM | CCCc1nc2c(C)cc(C(=O)NCCN3CCCC3)cc2n1Cc1ccc(-c2ccccc2S(=O)(=O)Nc2onc(C)c2C)cc1 |  |
| 42 nM | 24000 nM | CCCc1nc2c(C)cc(C(=O)NCCc3cccc(OC)c3)cc2n1Cc1ccc(-c2ccccc2S(=O)(=O)Nc2onc(C)c2C)cc1 |  |
| 373 nM | 35000 nM | CCCNC(=O)c1cc(C)c2nc(CCC)n(Cc3ccc(-c4ccccc4S(=O)(=O)Nc4onc(C)c4C)cc3)c2c1 |  |
|  |  | CCCCC1=NC2(CCCC2)C(=O)N1Cc1ccc(-c2ccccc2-c2nnn[nH]2)cc1 | Active |
| 7 nM | 11 nM | CCCCc1nn(-c2ccccc2Cl)c(=O)n1Cc1ccc(-c2ccccc2S(=O)(=O)Nc2onc(C)c2C)cc1 |  |
| 341 nM | 277 nM | CCCc1nc2c(C)cc(C(=O)NC(C)C)cc2n1Cc1ccc(-c2ccccc2S(=O)(=O)Nc2onc(C)c2C)cc1 |  |
| 201 nM | 27000 nM | CCCc1nc2c(C)cc(C(=O)Nc3ccccc3)cc2n1Cc1ccc(-c2ccccc2S(=O)(=O)Nc2onc(C)c2C)cc1 |  |
| 50 nM | 898 nM | CCCc1nc2c(C)cc(C(=O)NCc3cccc(OC)c3)cc2n1Cc1ccc(-c2ccccc2S(=O)(=O)Nc2onc(C)c2C)cc1 |  |
| 13 nM | 24 nM | CCCc1cc(Cn2c(CC)nc3c(C)cc(C)nc32)ccc1OC(C(=O)NS(=O)(=O)c1ccc(C(C)C)cc1)c1ccc2c(c1)OCO2 (configuration not stated) |  |
| 8 nM | 956 nM | CCCc1nc2c(C)cc(C(=O)NCCc3ccccc3)cc2n1Cc1ccc(-c2ccccc2S(=O)(=O)Nc2onc(C)c2C)cc1 |  |
| 94 nM | 5800 nM | CCCc1nc2c(C)cc(C(=O)NCCN3CCCCC3)cc2n1Cc1ccc(-c2ccccc2S(=O)(=O)Nc2onc(C)c2C)cc1 |  |
| 465 nM | 314 nM | CCCCNC(=O)c1cc(C)c2nc(CCC)n(Cc3ccc(-c4ccccc4S(=O)(=O)Nc4onc(C)c4C)cc3)c2c1 |  |
| 152 nM | 56000 nM | CCCc1nc2c(C)cc(C(=O)NCCc3ccc(F)cc3)cc2n1Cc1ccc(-c2ccccc2S(=O)(=O)Nc2onc(C)c2C)cc1 |  |
| 37 nM | 3000 nM | CCCc1nc2c(C)cc(C(=O)NCCc3cc(OC)ccc3OC)cc2n1Cc1ccc(-c2ccccc2S(=O)(=O)Nc2onc(C)c2C)cc1 |  |
